{"source": "patent US8034899B2", "about": "“HIV fusion inhibitor peptides with improved biological properties” (priority 2006, dated 2011)", "key": {"[1]": {"assay": "Pharmacokinetics after intravenous dosing in cynomolgus monkeys", "format": "in vivo, cynomolgus monkeys (Macaca fasicularis)", "conditions": "plasma", "procedure": "For determining pharmacokinetic properties, an HIV fusion inhibitor peptide or a base sequence from which an HIV fusion inhibitor peptide is derived was dosed intravenously in cynomolgus monkeys (Macaca fasicularis) (other animal models may be used for determining pharmacokinetic properties, as known in the art). At various times post-dose, blood samples were drawn and plasma isolated by centrifugation. Plasma samples were stored frozen until analysis by LC-MS (liquid chromatography/mass spectrometry) in the electrospray, positive-ion mode. An HIV fusion inhibitor or base sequence was eluted from a C18 or C8 HPLC column with a gradient of acetonitrile in a buffer of 10 mM ammonium acetate, pH 6.8. At the time of analysis, plasma samples were deproteinated with either two or three volumes of acetonitrile containing 0.5% formic acid. Duplicate calibration standards in cynomolgus plasma samples were prepared at the same time as the samples and analyzed before and after the samples containing either HIV fusion inhibitor peptide or base sequence. Pharmacokinetic properties were calculated from the plasma concentration-time data using either mono-exponential or bi-exponential mathematical models. Models were derived by non-linear least squares optimization. A 1/C^2 weighting of concentrations was used. […]"}, "[2]": {"tested_on": "HIV-1 IIIB", "conditions": "cited from earlier work"}, "[3]": {"conditions": "no additional components; cited from earlier work"}, "[4]": {"tested_on": "584.000098", "assay": "In vitro resistance selection in MT2 cells, cMAGI susceptibility, isolate 584.000098", "format": "cell-based, HIV", "conditions": "starting isolate 584.000098", "from_the_text": "(§1) Assessment of biological properties included measurement of antiviral activity against HIV-1 strains. […] These assays score for reduction of infectious virus titer employing the indicator cell lines MAGI or the CCR5 expressing derivative cMAGI. Both cell lines exploit the ability of HIV-1 tat to transactivate the expression of a β-galactosidase reporter gene driven by the HIV-LTR. The β-gal reporter has been modified to localize in the nucleus and can be detected with the X-gal substrate as intense nuclear staining within a few days of infection. […] The number of infected cells for each control and peptide dilution was determined with the CCD-imager, and then the IC50 was calculated (expressed in μg/ml).\n(§2) MT2 cells were infected with virus isolates (IIIB, 030, 060 and 098) and cultured in increasing concentrations of SEQ ID NO:2 (enfuvirtide) or SEQ ID NO:9 to select for resistance. […] Cultures were monitored for cytopathic effect (CPE) using standard techniques and when maximal CPE was achieved, a small aliquot of virus was used for subsequent rounds of infection. […] Peptide-free virus stocks were characterized for gp41 genotypic changes by dideoxy sequencing chemistries and phenotypic susceptibility was determined using a cMAGI infectivity assay."}, "[5]": {"tested_on": "584.000060", "assay": "In vitro resistance selection in MT2 cells, cMAGI susceptibility, isolate 584.000060", "format": "cell-based, HIV", "conditions": "starting isolate 584.000060", "from_the_text": "as §1, §2"}, "[6]": {"tested_on": "virus isolates (IIIB, 030, 060 and 098)", "assay": "In vitro resistance selection, geometric mean over the four isolates", "format": "cell-based, HIV", "conditions": "Geometric Mean of four isolates", "from_the_text": "MT2 cells were infected with virus isolates (IIIB, 030, 060 and 098) and cultured in increasing concentrations of SEQ ID NO:2 (enfuvirtide) or SEQ ID NO:9 to select for resistance. The initial peptide concentration was approximately 2 times the IC50 of each peptide against the corresponding wild type isolate. Peptide concentrations were maintained by adding fresh peptide every 1-3 days. Cultures were monitored for cytopathic effect (CPE) using standard techniques and when maximal CPE was achieved, a small aliquot of virus was used for subsequent rounds of infection. Peptide concentrations were increased 2 to 4-fold depending on the length of time in culture when compared to the growth rate of wild type virus. During the course of selection, peptide-free virus stocks were also collected. Peptide-free virus stocks were characterized for gp41 genotypic changes by dideoxy sequencing chemistries and phenotypic susceptibility was determined using a cMAGI infectivity assay."}, "[7]": {"conditions": "10 mg/ml in PBS, pH 7.3 to 7.5, 37° C., after several hours"}, "[8]": {"tested_on": "IIIB", "assay": "In vitro resistance selection in MT2 cells, cMAGI susceptibility, isolate IIIB", "format": "cell-based, HIV", "conditions": "starting isolate IIIB", "from_the_text": "as §1, §2"}, "[9]": {"tested_on": "HIV-1LA1", "conditions": "cited from earlier work"}, "[10]": {"tested_on": "584.000030", "assay": "In vitro resistance selection in MT2 cells, cMAGI susceptibility, isolate 584.000030", "format": "cell-based, HIV", "conditions": "starting isolate 584.000030", "from_the_text": "as §1, §2"}}}
{"substance": "Ac-TTWEAWDRAIAEYAARIEALLRAAQEQQEKLEAALREL-NH2 [SEQ ID NO:10, TTWEAWDRAIAEYAARIEALLRAAQEQQEKLEAALREL]", "values": [{"measurement": "Clearance", "setting": "[1]", "value": "<0.33", "unit": "mL/min/kg"}]}
{"substance": "Ac-TTWEAWDRAIAEYAARIEALLRALQEQQEKNEAALREL-NH2 [SEQ ID NO:9, TTWEAWDRAIAEYAARIEALLRALQEQQEKNEAALREL]", "values": [{"measurement": "Clearance", "setting": "[1]", "value": "<0.33", "unit": "mL/min/kg"}]}
{"substance": "MTWMEWDREINNYTSLIHSLIEESQNQQEKNEQELL [T651]", "values": [{"measurement": "IC50 blocking infection of target cells", "setting": "[2]", "value": 5, "unit": "ng/mL"}]}
{"substance": "enfuvirtide", "values": [{"measurement": "concentration achievable in an injectable aqueous solution without problems of solubility and stability", "setting": "[3]", "value": "≤ 100", "unit": "mg/mL"}, {"measurement": "Fold Change in IC50", "setting": "[4]", "value": 912, "unit": "fold"}, {"measurement": "Fold Change in IC50", "setting": "[5]", "value": 7, "unit": "fold"}, {"measurement": "Fold Change in IC50", "setting": "[6]", "value": 42, "unit": "fold"}, {"measurement": "stability of the solution (peptide remaining in solution)", "setting": "[7]", "value": "minimal peptide detected in solution"}, {"measurement": "Fold Change in IC50", "setting": "[8]", "value": 27, "unit": "fold"}, {"measurement": "EC50 blocking infection of target cells", "setting": "[9]", "value": 0.5, "unit": "ng/mL"}, {"measurement": "Fold Change in IC50", "setting": "[10]", "value": 19, "unit": "fold"}]}
